Assay results from US5563277A, “Process for preparing benzyl-substituted rhodanine derivatives” (Eli Lilly and Company, priority 1994, dated 1996).

System: Acetic Acid Induced Colitis
Experiment: Inhibition of Acetic Acid Induced Colitis
Type: in vivo, Male Sprague-Dawley rats
Details: rat; 30 mg/kg oral, 2 h before 2 ml of 2.5% acetic acid intracolonic enema, second dose 6 h after enema; colon lesions scored 0-4 twenty four hours later vs vehicle
Description: As noted above, the present invention provides a method of treating inflammatory bowel disease in mammals.
Male Sprague-Dawley rats from Charles River Laboratories, Portage, Mich. (weight approximately 250 g) were dosed orally with test compound (30 mg/kg) or vehicle (control). Two hours after dosing, each animal received 2 ml of a 2.5% acetic acid intracolonic enema via a cannula, the tip of which was placed 8 cm above the anal verge. This concentration of acetic acid produced a severe inflammatory response in the colon characterized by rectal bleeding, diarrhea, epithelial erosions and destructions of crypts and gland cells. Six hours from the enema the test animals were then given a second dose of test compound or vehicle. Twenty four hours later the test and control animals were killed and the distal ten centimeters of the colon were removed and opened longitudinally. The tissue lesions contained within the removed, opened, section of colon were scored by three independent blinded observers on a scale of 0 to 4 (zero=normal, four=worst inflammation). In each test group 5-7 rats were used. Test results from animals given test compound dissolved in vehicle were compared with test results from animals given vehicle alone in order to determine the percentage of lesion inhibition attributable to the test compound.

Going from CC(C)(C)c1cc(CC(S)C(=O)O)cc(C(C)(C)C)c1O (stereo not shown) [3-[3,5-bis(1,1-dimethylethyl)-4-hydroxyphenyl]-2-mercaptopropanoic acid] to C[C@H](c1ccccc1)N1CS[C@H](Cc2cc(C(C)(C)C)c(O)c(C(C)(C)C)c2)C1=O [(3αR,5R)-5-[[3,5-bis(1,1-dimethylethyl)-4-hydroxyphenyl]methyl]-3-(1-phenylethyl)-4-thiazolidinone], the “% Inhibition (percentage of lesion inhibition)” value rises from 18% to 30%.

First: COC(=O)c1ccc(CN2CSC(Cc3cc(C(C)(C)C)c(O)c(C(C)(C)C)c3)C2=O)cc1 (stereo not shown) [5-[[3,5-bis(1,1-dimethylethyl)-4-hydroxyphenyl]methyl]-3-(carbomethoxybenzyl)-4-thiazolidinone]
Second: C[C@H](c1ccccc1)N1CS[C@@H](Cc2cc(C(C)(C)C)c(O)c(C(C)(C)C)c2)C1=O [(3αR, 5S)-5-[[3,5-bis (1,1-dimethylethyl)-4-hydroxyphenyl]methyl]-3-(1-phenylethyl)-4-thiazolidinone]
The “% Inhibition (percentage of lesion inhibition)” value of the first is lower: 11% for the first, 36% for the second.
